Several values for one entry are separate records, joined by “and”; a condition that tells them apart may be missing. Identical values can stand only once.
How the values were obtained:
Format in all cases: physicochemical
[1] = Solid-state stability on storage (crystal form by XRPD, purity); conditions: for Crystal Form after storage / main purity after storage / maximum single impurity after storage: 30 days exposed
Method: Samples were taken before and after storage, and crystal forms were measured through XRPD. […] Table 3 Comparison of solid-state stability of crystal form A and crystal form B

[2] = Dynamic solubility at 37 °C (HPLC; residual solid by XRPD); conditions: for solubility at 1 h / solubility at 2 h / solubility at 4 h / solubility at 24 h: thermodynamic from solid
Method: Samples of the crystal form A and the crystal form B of ethoximod were taken and prepared into saturated solutions at 37 °C in Fasted State Simulated Intestinal Fluid (FaSSIF, pH = 8.0), Fed State Simulated Intestinal Fluid (FeSSIF, pH = 5.0), Simulated Gastric Fluid (SGF, pH = 1.0), a hydrochloric acid aqueous solution (pH = 1.0), an acetic acid-sodium acetate buffer system (pH = 4.0), a phosphate buffer system (pH = 6.8) and water. After 1 h/2 h/4 h/24 h, filtration was performed to obtain solutions, and actual concentrations of the samples in the solutions were measured through high-performance liquid chromatography (HPLC) (diluting the filtrates as needed). Crystal forms of the solids before and after the experiment were characterized through XRPD to check whether phase transition had occurred. Table 4 Comparison of solubility of crystal form A and crystal form B

[3] = Equilibrium solubility in organic solvents at room temperature (HPLC; solid by XRPD); conditions: equilibrium for 24 h; for solubility at 24 h: organic solvent or mixture, thermodynamic from solid
Method: The crystal form A and the crystal form B of ethoximod were prepared into solutions at room temperature with ethanol, acetone and ethyl acetate. After equilibrium for 24 h, filtration was performed to obtain saturated solutions, and contents of the samples in the saturated solutions were measured through high-performance liquid chromatography (HPLC) (diluting the filtrates as needed). Crystal forms of the solids before and after the experiment were characterized through XRPD to check whether phase transition had occurred.

[4] = Dynamic vapor sorption (hygroscopicity)
Text: In the examples of the present application, the instrument used for the X-ray powder diffraction test is the D2 Phaser produced by Bruker. The instrument used for the differential scanning calorimetry test is the differential scanning calorimeter DSC 250 produced by TA Instruments. The instrument used for the thermogravimetric analysis is the thermogravimetric analyzer TGA 55 produced by TA Instruments. The instrument used for the FT-IR test is the Fourier infrared spectrometer ID1-summit produced by Thermo. The instrument used for the dynamic vapor sorption test is the DVS Intrinsic produced by Surface Measurement Systems (SMS). The instrument used for the microscopy is the microscope NJF-120A produced by Suzhou Nanguang Electronic Technology Co., Ltd.
Samples of the crystal form A and the crystal form B of ethoximod were taken for a dynamic vapor sorption test.

[5] = Mechanical stability: grinding, XRPD before and after; conditions: ground with an agate mortar for 5 min; hydrochloride
Method: 50 mg crystal form A of ethoximod and 50 mg crystal form B of ethoximod were weighed and ground clockwise with an agate mortar for 5 min, and the samples before and after the grinding were subjected to an XRPD test.

[6] = Bulk density and tap density test, Hausner ratio and compressibility; conditions: hydrochloride
Method: In this experiment, the measurement was performed by using a tap instrument according to a fixed volume method. Specific operations are as follows: the weighed powders were loaded into a 50 mL graduated cylinder, and the graduated cylinder was fixed on a support; the tap instrument was set to vibrate 55±5 times per minute for 6-8 min; a change in a volume of the powders in the measuring cup was measured. A ratio of a mass of the powders to a volume (50 mL) of the materials before the tap is the bulk density of the powders, and a ratio of the mass of the powders to a volume of the materials after the tap is the tap density of the powders. Methods for converting Hausner ratio and compressibility are as follows, and the description of Hausner ratio and flowability is shown in Table 8: Table 6 Physical properties of crystal form A and crystal form B

[7] = Compressibility: tableting evaluation; conditions: punch die with a diameter of 6 mm, hydrochloride
Method: The crystal form A and the crystal form B of ethoximod were taken for preparation tableting evaluation. In this experiment, samples were subjected to tableting under the same pressure by using a punch die with a diameter of 6 mm, radial crushing forces F, diameters D and thicknesses L of the tablets were measured after the elastic recovery of the tablets, and the tensile strength of the tablets was calculated according to the following formula: tensile strength Ts = 2F/ΠDL.

[8] = Microscopic morphology and particle size; conditions: optical microscope, 40× objective lens; hydrochloride
Text: Samples of the crystal form A and the crystal form B of ethoximod were subjected to microscopic morphological researches. The morphology and particle sizes of the crystal form A and the crystal form B were observed under a 40× objective lens of an optical microscope. The crystal form A is irregular and plate-shaped with a raw material particle size of below 35 µm and a long/short diameter ratio of 1 to 2. The crystal form B aggregates and becomes spherical with a raw material particle size of below 20 µm.

With `CCc1nc(-c2ccc(-c3ccc(CCC(N)(CO)CO)cc3)cc2)co1.Cl` [crystal form A, 2-amino-2-{2-(4'-(2-ethyloxazol-4-yl)-[1,1'-biphenyl]-4-yl)ethyl}-1,3-propylene glycol hydrochloride] the “change in main purity” value ([1]; 40 °C/75% RH, 60 °C and 92.5% RH for 30 days) was “no significant change”, the “time the crystal form is stable (XRPD)” value ([1]; 60 °C, 92.5% RH, light and 45 °C/75% RH) was “at least 30 days” and the “Crystal Form after storage” value ([1]; At 40 °C/75% RH, hydrochloride) was “crystal form A”. The “main purity after storage” value ([1]; At 40 °C/75% RH, hydrochloride) was 98.88 A%, the “maximum single impurity after storage” value ([1]; At 40 °C/75% RH, hydrochloride) was 0.35 A% and the “Crystal Form after storage” value ([1]; At 60 °C, hydrochloride) was “crystal form A”. The “main purity after storage” value ([1]; At 60 °C, hydrochloride) was 98.82 A%, the “maximum single impurity after storage” value ([1]; At 60 °C, hydrochloride) was “maximum single impurity: 0.35 A%” and the “Crystal Form after storage” value ([1]; At 92.5% RH, hydrochloride) was “crystal form A”. For the same molecule, the “main purity after storage” value ([1]; At 92.5% RH, hydrochloride) was 98.86 A%, the “maximum single impurity after storage” value ([1]; At 92.5% RH, hydrochloride) was “maximum single impurity: 0.35 A%” and the “Crystal Form after storage” value ([1]; In light, hydrochloride) was “crystal form A”. For the same molecule, the “main purity after storage” value ([1]; In light, hydrochloride) was 97.79 A%, the “maximum single impurity after storage” value ([1]; In light, hydrochloride) was “maximum single impurity: 0.34 A%” and the main purity ([1]; before storage, hydrochloride) was 98.84 A%. The maximum single impurity ([1]; before storage, hydrochloride) was 0.40 A%, the “change in main purity” value ([1]; light for 30 days, hydrochloride) was “slightly decreased” and the “crystal form of the solid” value ([2]; FaSSIF (pH = 8.0), 37 °C, 1 h, hydrochloride) was “A+free alkali”. The “crystal form of the solid” value ([2]; FaSSIF (pH = 8.0), 37 °C, 2 h, hydrochloride) was “A+free alkali”, the “crystal form of the solid” value ([2]; FaSSIF (pH = 8.0), 37 °C, 4 h, hydrochloride) was “A+free alkali” and the “crystal form of the solid” value ([2]; FaSSIF (pH = 8.0), 37 °C, 24 h, hydrochloride) was “A+free alkali”. It also gave a solubility at 1 h ([2]; Fasted State Simulated Intestinal Fluid (FaSSIF), 37 °C, pH 8, fassif, FaSSIF (pH = 8.0), 1 h) of 10 µg/mL, a solubility at 2 h ([2]; Fasted State Simulated Intestinal Fluid (FaSSIF), 37 °C, pH 8, fassif, FaSSIF (pH = 8.0), 2 h) of 9 µg/mL and a solubility at 4 h ([2]; Fasted State Simulated Intestinal Fluid (FaSSIF), 37 °C, pH 8, fassif, FaSSIF (pH = 8.0), 4 h) of 11 µg/mL. The solubility at 24 h ([2]; Fasted State Simulated Intestinal Fluid (FaSSIF), 37 °C, pH 8, fassif, FaSSIF (pH = 8.0), 24 h) was 26 µg/mL, the solubility ([2]; FeSSIF (pH = 5.0), 37 °C, 4 h, hydrochloride) was 2520 µg/mL and the solubility at 1 h ([2]; Fed State Simulated Intestinal Fluid (FeSSIF), 37 °C, pH 5, fessif, FeSSIF (pH = 5.0), 1 h) was 1540 µg/mL. The solubility at 2 h ([2]; Fed State Simulated Intestinal Fluid (FeSSIF), 37 °C, pH 5, fessif, FeSSIF (pH = 5.0), 2 h) was 2000 µg/mL, the solubility at 24 h ([2]; Fed State Simulated Intestinal Fluid (FeSSIF), 37 °C, pH 5, fessif, FeSSIF (pH = 5.0), 24 h) was 2670 µg/mL and the solubility at 1 h ([2]; Simulated Gastric Fluid (SGF), 37 °C, pH 1, simulated gastric fluid, SGF (pH = 1.0), 1 h) was 240 µg/mL. For the same molecule, the solubility at 2 h ([2]; Simulated Gastric Fluid (SGF), 37 °C, pH 1, simulated gastric fluid, SGF (pH = 1.0), 2 h) was 260 µg/mL, the solubility at 4 h ([2]; Simulated Gastric Fluid (SGF), 37 °C, pH 1, simulated gastric fluid, SGF (pH = 1.0), 4 h) was 260 µg/mL and the solubility at 24 h ([2]; Simulated Gastric Fluid (SGF), 37 °C, pH 1, simulated gastric fluid, SGF (pH = 1.0), 24 h) was 270 µg/mL. For the same molecule, the solubility at 1 h ([2]; acetic acid-sodium acetate buffer, 37 °C, pH 4, aqueous buffer, acetic acid-sodium acetate buffer pH = 4.0, 37 °C, 1 h) was 2490 µg/mL, the solubility at 2 h ([2]; acetic acid-sodium acetate buffer, 37 °C, pH 4, aqueous buffer, acetic acid-sodium acetate buffer pH = 4.0, 37 °C, 2 h) was 2480 µg/mL and the solubility at 4 h ([2]; acetic acid-sodium acetate buffer, 37 °C, pH 4, aqueous buffer, acetic acid-sodium acetate buffer pH = 4.0, 37 °C, 4 h) was 2740 µg/mL. The solubility at 24 h ([2]; acetic acid-sodium acetate buffer, 37 °C, pH 4, aqueous buffer, acetic acid-sodium acetate buffer pH = 4.0, 37 °C, 24 h) was 2590 µg/mL, the solubility at 1 h ([2]; hydrochloric acid aqueous solution, 37 °C, pH 1, simulated gastric fluid, hydrochloric acid aqueous solution pH = 1.0, 37 °C, 1 h) was 280 µg/mL and the solubility at 2 h ([2]; hydrochloric acid aqueous solution, 37 °C, pH 1, simulated gastric fluid, hydrochloric acid aqueous solution pH = 1.0, 37 °C, 2 h) was 280 µg/mL. For the same molecule, the solubility at 4 h ([2]; hydrochloric acid aqueous solution, 37 °C, pH 1, simulated gastric fluid, hydrochloric acid aqueous solution pH = 1.0, 37 °C, 4 h) was 290 µg/mL, the solubility at 24 h ([2]; hydrochloric acid aqueous solution, 37 °C, pH 1, simulated gastric fluid, hydrochloric acid aqueous solution pH = 1.0, 37 °C, 24 h) was 380 µg/mL and the “crystal form of the solid” value ([2]; phosphate buffer pH = 6.8, 37 °C, 1 h) was “free alkali”. For the same molecule, the solubility ([2]; phosphate buffer pH = 6.8, 37 °C, 1 h, hydrochloride) was 0.2 µg/mL, the “crystal form of the solid” value ([2]; phosphate buffer pH = 6.8, 37 °C, 2 h) was “free alkali” and the “crystal form of the solid” value ([2]; phosphate buffer pH = 6.8, 37 °C, 4 h) was “free alkali”. For the same molecule, the “crystal form of the solid” value ([2]; phosphate buffer pH = 6.8, 37 °C, 24 h) was “free alkali”, the solubility ([2]; phosphate buffer pH = 6.8, 37 °C, 24 h, hydrochloride) was 0.76 µg/mL and the solubility at 2 h ([2]; phosphate buffer, 37 °C, pH 6.8, aqueous buffer, phosphate buffer pH = 6.8, 37 °C, 2 h) was 0.07 µg/mL. For the same molecule, the solubility at 4 h ([2]; phosphate buffer, 37 °C, pH 6.8, aqueous buffer, phosphate buffer pH = 6.8, 37 °C, 4 h) was 0.14 µg/mL, the solubility at 1 h ([2]; water, 37 °C, 1 h) was 2080 µg/mL and the solubility at 2 h ([2]; water, 37 °C, 2 h) was 2150 µg/mL. For the same molecule, the solubility at 4 h ([2]; water, 37 °C, 4 h) was 2140 µg/mL, the solubility at 24 h ([2]; water, 37 °C, 24 h) was 2260 µg/mL and the solubility at 24 h ([3]; acetone) was 30 µg/mL. The solubility at 24 h ([3]; ethanol) was 3470 µg/mL, the solubility ([3]; ethyl acetate, hydrochloride) was 40 µg/mL and the “vapor sorption weight gain” value ([4]; 24.3 °C and 90% RH) was 0.14%. For the same molecule, the “hygroscopic weight gain (vapor sorption)” value ([4]; 25 °C/90% RH, hydrochloride) was 0.14%, the hygroscopicity ([4]; DVS, 90% RH, hydrochloride) was “no or almost no hygroscopicity” and the “crystal form after the dynamic vapor sorption test (XRPD)” value ([4]; after DVS test, hydrochloride) was “not subjected to crystal transformation”. The “crystal form after grinding (XRPD)” value [5] was “remains unchanged”, the Compressibility ([6]; (tap density - bulk density)/tap density) was 54.0 and the “Bulk Density” value [6] was 0.2578 g/mL. The “Tap Density” value [6] was 0.5604 g/mL, the “Hausner Ratio” value ([6]; tap density/bulk density) was 2.2 and the “Radial Crushing Force F (Hardness/N)” value ([7]; tablet) was 5 N and 3 N. The “Experimental Phenomenon” value ([7]; tableting) was “slight sticking” and the “raw material particle size” value [8] was “below 35 µm”.

From EP4640674A1, “CRYSTAL FORMS OF ETHOXIMOD, PREPARATION METHOD THEREFOR AND USE THEREOF” (Jiankuan (Suzhou) Biotechnology Co., Ltd, priority 2022, dated 2024)
